Molecules are shown by their SMILES. pIC50: −log10 of the molar value.

The term pIC50 denotes −log10 of the IC50, conventionally taken in molar units.

Holding throughout (details): biochemical, HTRF KinEASE-TK
The target of one assay is c-Kit (Homo sapiens (Human), UniProt P10721). Kind of assay: Inhibition of c-Kit kinase activity (HTRF KinEASE-TK). In kind it is biochemical. As to the method: (§1) Inhibition of c-Kit, PDGFRα, PDGFRβ, CSFIR and FLT3 Kinase Activity
(§2) Compounds were evaluated to determine the potency with which they inhibit the kinase activity of the following panel of tyrosine kinases: c-Kit (SignalChem, Product #: K06-11BG), PDGFRα (SignalChem, Product #: P12-18G), PDGFRβ (SignalChem, Product #: P13-11G), CSFIR (SignalChem, Product #: C74-11G) and FLT3 (Invitrogen, Product #: PR4666C). Activity was determined as a function of phosphorylated biotinylated TK peptide generated by the transfer of phosphate from ATP as measured by the use of the HTRF KinEASE-TK assay kit (Cisbio, Product #: 62TKOPEJ). Levels of phosphorylated biotinylated TK peptide (Part 61TKOBLC of KinEASE assay kit) are quantified by its capture by phosphor-TK-Antibody-Cryptate (Part of KinEASE assay kit) and XL665-labeled Streptavidin (Part 610SAXLG of KinEASE assay kit) followed by measurement of Time-Resolved Fluorescence Resonance Energy Transfer (TR-FRET) signal. On the day of the assay, compounds were solubilized in DMSO and dispensed into a 384-well white Opti-plate (PerkinElmer, catalog #6007290) to generate a 22 point 1:2 titration. Enzyme solution was prepared for each of the tyrosine kinases in 50 mM HEPES, pH 7.4, 5 mM MgCl2 for c-Kit or 10 mM MgCl2 for FLT3, CSFIR, PDGFRa and PDGFRβ, 2 mM MnCl2, 0.01% Brij-35 and 0.01% BSA. Working enzyme concentrations were prepared for c-Kit at 2 nM (2×), PDGFRa and PDGFRß at 10 nM (2×), CSFIR at 2 nM (2×) and FLT3 at 0.4 nM (2×). Five microliters of enzyme dilution of each tyrosine kinase were added to their respective 384-well white Opti-plate pre-dispensed with compound and allowed to incubate for 1 h at rt. Utilizing the same enzyme buffer recipe, 2x substrate mixes were prepared for each enzyme as follows: For c-Kit, 1.6 μM (2×) TK substrate and 16 μM (2×) ATP (Promega, catalog #V915). For PDGFRα, 3.2 μM TK substrate and 1 μM ATP. For PDGFRβ, 3.2 μM TK substrate and 40 μM ATP. For CSFIR, […] TK substrate and 20 μM ATP. For FLT3, 3.2 μM TK substrate and 100 μM ATP. Reactions were initiated by addition of 5 μL of the respective 2x substrate mix to each well of the plates containing the respective tyrosine kinase enzymes and were allowed to proceed for 120 minutes at rt, except for FLT3, the reaction time is 45 min. Following the reaction, 10 μL of detection mix consisting of 0.2 μM (2×) of Streptavidin-XL665 and 2 μM (2×) of TK-Antibody-Cryptate prepared in detection buffer (Part 62SDBRDF of KinEASE assay kit) was added and then allowed to incubate for 60 min. The TR-FRET signal was quantified by measuring the ratio of emission at 665 nm to 620 nm after excitation at 320 nm by reading on a PerkinElmer Envision multimode reader. Compound potencies (IC50 values) were determined using a standard 4-parameter non-linear regression fit.
In general terms: In TR-FRET formats the signal depends on donor and acceptor labels being close together.

Another assay has as its target PDGFRα (Homo sapiens (Human), UniProt P16234). The assay can be described thus: Inhibition of PDGFRα kinase activity (HTRF KinEASE-TK). The protocol:
as §1, §2

The target in a further assay is PDGFRβ (Homo sapiens (Human), UniProt P09619). The assay can be described thus: Inhibition of PDGFRβ kinase activity (HTRF KinEASE-TK). The protocol:
as §1, §2

The next assay deals with CSF1R (Homo sapiens (Human), UniProt P07333). The assay can be described thus: Inhibition of CSF1R kinase activity (HTRF KinEASE-TK). As to the method:
as §1, §2

PDGFRβ, sequence (P09619 33-1106): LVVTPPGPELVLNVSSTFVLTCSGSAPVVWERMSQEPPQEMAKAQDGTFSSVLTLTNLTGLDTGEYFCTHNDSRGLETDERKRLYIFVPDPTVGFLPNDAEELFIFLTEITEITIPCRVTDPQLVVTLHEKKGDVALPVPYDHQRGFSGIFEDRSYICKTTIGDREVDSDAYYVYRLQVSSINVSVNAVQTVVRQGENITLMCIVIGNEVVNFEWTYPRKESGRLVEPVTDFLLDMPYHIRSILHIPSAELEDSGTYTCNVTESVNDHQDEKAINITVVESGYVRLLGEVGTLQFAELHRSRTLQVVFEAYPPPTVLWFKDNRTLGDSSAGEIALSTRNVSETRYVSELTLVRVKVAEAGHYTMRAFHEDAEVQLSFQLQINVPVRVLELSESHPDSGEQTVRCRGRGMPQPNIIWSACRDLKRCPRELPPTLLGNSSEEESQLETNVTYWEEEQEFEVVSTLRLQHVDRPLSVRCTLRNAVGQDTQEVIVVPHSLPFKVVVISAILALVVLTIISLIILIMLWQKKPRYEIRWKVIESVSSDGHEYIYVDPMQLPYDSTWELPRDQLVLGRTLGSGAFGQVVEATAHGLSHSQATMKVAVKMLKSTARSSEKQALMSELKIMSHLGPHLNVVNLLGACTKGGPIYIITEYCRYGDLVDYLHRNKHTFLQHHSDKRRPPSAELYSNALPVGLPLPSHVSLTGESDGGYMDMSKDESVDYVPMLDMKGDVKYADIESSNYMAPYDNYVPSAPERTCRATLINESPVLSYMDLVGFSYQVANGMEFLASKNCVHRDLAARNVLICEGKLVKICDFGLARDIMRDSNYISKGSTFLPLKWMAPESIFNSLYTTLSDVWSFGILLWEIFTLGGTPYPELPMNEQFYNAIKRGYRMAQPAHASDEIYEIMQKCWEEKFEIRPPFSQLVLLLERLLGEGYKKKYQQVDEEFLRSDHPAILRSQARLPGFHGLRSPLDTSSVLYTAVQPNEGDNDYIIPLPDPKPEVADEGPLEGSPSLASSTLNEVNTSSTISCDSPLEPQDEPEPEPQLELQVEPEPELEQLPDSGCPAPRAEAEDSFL
c-Kit, sequence (P10721 26-976): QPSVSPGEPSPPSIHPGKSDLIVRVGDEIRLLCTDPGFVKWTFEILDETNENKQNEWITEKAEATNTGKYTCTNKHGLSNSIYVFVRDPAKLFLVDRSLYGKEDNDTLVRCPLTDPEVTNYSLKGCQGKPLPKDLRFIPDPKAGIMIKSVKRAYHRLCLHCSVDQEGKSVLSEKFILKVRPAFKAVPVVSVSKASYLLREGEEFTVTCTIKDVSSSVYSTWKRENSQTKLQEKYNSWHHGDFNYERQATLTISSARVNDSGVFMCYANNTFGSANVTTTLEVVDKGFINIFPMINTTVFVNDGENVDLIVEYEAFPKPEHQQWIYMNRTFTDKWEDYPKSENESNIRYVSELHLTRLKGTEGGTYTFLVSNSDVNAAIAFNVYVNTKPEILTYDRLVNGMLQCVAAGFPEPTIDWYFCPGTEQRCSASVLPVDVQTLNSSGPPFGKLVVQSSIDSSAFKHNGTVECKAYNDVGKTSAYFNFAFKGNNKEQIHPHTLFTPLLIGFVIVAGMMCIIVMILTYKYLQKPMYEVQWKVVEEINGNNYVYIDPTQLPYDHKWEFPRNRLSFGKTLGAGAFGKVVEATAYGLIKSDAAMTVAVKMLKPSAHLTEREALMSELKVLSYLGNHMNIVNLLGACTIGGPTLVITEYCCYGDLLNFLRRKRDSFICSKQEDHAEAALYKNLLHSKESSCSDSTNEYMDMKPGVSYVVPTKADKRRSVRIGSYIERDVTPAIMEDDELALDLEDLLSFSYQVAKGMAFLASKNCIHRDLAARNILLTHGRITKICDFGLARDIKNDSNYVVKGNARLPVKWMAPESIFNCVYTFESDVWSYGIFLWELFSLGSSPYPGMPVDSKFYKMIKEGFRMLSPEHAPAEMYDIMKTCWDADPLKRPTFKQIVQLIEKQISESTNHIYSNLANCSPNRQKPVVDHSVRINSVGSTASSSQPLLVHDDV
PDGFRα, sequence (P16234 24-1089): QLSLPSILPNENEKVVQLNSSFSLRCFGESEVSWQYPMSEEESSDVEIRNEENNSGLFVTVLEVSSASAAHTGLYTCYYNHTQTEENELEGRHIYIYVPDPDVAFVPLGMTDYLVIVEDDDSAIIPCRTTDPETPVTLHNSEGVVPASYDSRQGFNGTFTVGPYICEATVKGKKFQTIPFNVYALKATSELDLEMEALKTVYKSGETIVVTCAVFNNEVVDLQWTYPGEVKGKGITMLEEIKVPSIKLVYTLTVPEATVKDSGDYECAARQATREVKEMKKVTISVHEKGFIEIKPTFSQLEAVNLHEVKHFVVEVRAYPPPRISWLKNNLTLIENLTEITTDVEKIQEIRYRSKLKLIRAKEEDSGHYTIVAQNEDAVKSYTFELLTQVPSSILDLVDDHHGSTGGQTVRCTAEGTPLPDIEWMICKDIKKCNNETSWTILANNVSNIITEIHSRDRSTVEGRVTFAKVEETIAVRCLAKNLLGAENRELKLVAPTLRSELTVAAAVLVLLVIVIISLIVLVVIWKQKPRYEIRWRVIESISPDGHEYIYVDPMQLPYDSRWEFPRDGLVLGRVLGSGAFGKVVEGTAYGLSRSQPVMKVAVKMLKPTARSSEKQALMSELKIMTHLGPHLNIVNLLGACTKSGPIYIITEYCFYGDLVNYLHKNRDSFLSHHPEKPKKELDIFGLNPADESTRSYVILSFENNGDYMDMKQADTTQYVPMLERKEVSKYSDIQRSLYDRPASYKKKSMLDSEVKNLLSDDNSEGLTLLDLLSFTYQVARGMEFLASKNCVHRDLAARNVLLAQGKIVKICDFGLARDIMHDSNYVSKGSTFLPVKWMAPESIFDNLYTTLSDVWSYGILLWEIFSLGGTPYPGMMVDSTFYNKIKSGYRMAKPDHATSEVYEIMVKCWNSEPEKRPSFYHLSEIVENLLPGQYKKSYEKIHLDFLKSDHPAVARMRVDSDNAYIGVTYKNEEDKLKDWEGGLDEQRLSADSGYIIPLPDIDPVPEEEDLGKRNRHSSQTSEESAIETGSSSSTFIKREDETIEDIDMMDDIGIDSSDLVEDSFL
CSF1R, sequence (P07333 20-972): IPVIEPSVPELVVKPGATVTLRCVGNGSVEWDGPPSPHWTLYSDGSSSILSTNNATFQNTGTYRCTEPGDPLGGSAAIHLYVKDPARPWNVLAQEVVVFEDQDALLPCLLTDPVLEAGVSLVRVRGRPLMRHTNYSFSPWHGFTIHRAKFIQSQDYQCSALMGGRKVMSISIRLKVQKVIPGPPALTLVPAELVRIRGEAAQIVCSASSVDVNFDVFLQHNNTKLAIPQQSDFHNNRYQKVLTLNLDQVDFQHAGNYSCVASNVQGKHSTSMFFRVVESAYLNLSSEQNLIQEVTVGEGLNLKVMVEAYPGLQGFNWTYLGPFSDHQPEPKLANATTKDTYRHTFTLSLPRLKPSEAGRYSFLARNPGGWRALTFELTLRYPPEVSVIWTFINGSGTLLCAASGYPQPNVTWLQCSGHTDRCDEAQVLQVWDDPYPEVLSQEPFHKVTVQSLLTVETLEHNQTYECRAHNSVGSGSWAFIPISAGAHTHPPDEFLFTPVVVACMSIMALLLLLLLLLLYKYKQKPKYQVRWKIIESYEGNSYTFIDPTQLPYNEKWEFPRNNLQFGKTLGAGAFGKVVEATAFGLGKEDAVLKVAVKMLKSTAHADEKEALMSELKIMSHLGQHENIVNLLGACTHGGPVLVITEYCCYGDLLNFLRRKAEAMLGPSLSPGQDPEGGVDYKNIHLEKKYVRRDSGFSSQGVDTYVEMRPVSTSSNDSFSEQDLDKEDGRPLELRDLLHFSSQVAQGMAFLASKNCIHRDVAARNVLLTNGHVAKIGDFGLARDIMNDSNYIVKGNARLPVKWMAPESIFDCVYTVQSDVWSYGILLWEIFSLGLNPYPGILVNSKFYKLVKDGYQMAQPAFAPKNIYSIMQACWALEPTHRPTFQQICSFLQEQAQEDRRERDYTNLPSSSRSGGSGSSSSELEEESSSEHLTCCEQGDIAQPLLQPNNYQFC

As to `Cc1cc(F)c(C(=O)Nc2ccc(OC3CC3)cn2)cc1NC(=O)c1cnc(NC(=O)[C@H]2CCOC2)s1` [Example 108, N-[5-[(5-cyclopropyloxypyridin-2-yl)carbamoyl]-4-fluoro-2-methylphenyl]-2-[[(3S)-oxolane-3-carbonyl]amino]-1,3-thiazole-5-carboxamide], the pIC50 against c-Kit was above 7.00; at PDGFRα, below 6.00; on PDGFRβ it was below 6.00; on CSF1R it was below 6.00.
As for `Cc1cc(F)c(C(=O)Nc2ccc(OC3CC3)cn2)cc1NC(=O)c1cnc(NC(=O)C(C)(C)O)s1` [Example 109, N-[5-[(5-cyclopropyloxypyridin-2-yl)carbamoyl]-4-fluoro-2-methylphenyl]-2-[(2-hydroxy-2-methylpropanoyl)amino]-1,3-thiazole-5-carboxamide], the pIC50 on c-Kit was 6.00 to 7.00; against PDGFRα, below 6.00; against PDGFRβ it was below 6.00; at CSF1R, below 6.00.
As to `Cc1cc(F)c(C(=O)Nc2ccc(C(C)(O)C(F)(F)F)cn2)cc1NC(=O)c1cnc(N)s1` (stereo not drawn) [Example 111, 2-Amino-N-[4-fluoro-2-methyl-5-[[5-(1,1,1-trifluoro-2-hydroxypropan-2-yl)pyridin-2-yl]carbamoyl]phenyl]-1,3-thiazole-5-carboxamide], the pIC50 against c-Kit, at PDGFRα, on PDGFRβ and on CSF1R was above 7.00 each time.
`Cc1cc(F)c(C(=O)Nc2cc3c(cn2)COC3)cc1NC(=O)c1cnc(N)s1` [Example 112, 2-Amino-N-[5-(1,3-dihydrofuro [3,4-c]pyridin-6-ylcarbamoyl)-4-fluoro-2-methylphenyl]-1,3-thiazole-5-carboxamide]: the pIC50 against c-Kit was above 7.00; on PDGFRα it was below 6.00; at PDGFRβ, 6.00 to 7.00; against CSF1R, 6.00 to 7.00.
For the compound `Cc1cc(F)c(C(=O)Nc2ccc(C(C)(C)O)cn2)cc1NC(=O)c1cnc(N)s1` [Example 113, 2-Amino-N-[4-fluoro-5-[[5-(2-hydroxypropan-2-yl)pyridin-2-yl]carbamoyl]-2-methylphenyl]-1,3-thiazole-5-carboxamide], the pIC50 against c-Kit was above 7.00; on PDGFRα, 6.00 to 7.00; at PDGFRβ it was above 7.00; against CSF1R it was 6.00 to 7.00.
Take `Cc1cc(F)c(C(=O)Nc2ccc(S(C)(=O)=O)cn2)cc1NC(=O)c1cnc(N)s1` [Example 116, 2-Amino-N-[4-fluoro-2-methyl-5-[(5-methylsulfonylpyridin-2-yl)carbamoyl]phenyl]-1,3-thiazole-5-carboxamide]: the pIC50 against c-Kit is above 7.00; against PDGFRα it was below 6.00; at PDGFRβ, 6.00 to 7.00; on CSF1R, 6.00 to 7.00.
`Cc1cc(F)c(C(=O)Nc2ccc(C3(C#N)CC3)nn2)cc1NC(=O)c1cnc(N)s1` [Example 119, 2-Amino-N-[5-[[6-(1-cyanocyclopropyl)pyridazin-3-yl]carbamoyl]-4-fluoro-2-methylphenyl]-1,3-thiazole-5-carboxamide]: the pIC50 against c-Kit was above 7.00; against PDGFRα it was below 6.00; at PDGFRβ, 6.00 to 7.00; on CSF1R, 6.00 to 7.00.
As for `Cc1cc(F)c(C(=O)NC2CN(C(=O)C3CC3)C2)cc1NC(=O)c1cnc(N)s1` [Example 121, 2-Amino-N-[5-[[1-(cyclopropanecarbonyl)azetidin-3-yl]carbamoyl]-4-fluoro-2-methylphenyl]-1,3-thiazole-5-carboxamide], the pIC50 against c-Kit is above 7.00; against PDGFRα, below 6.00; against PDGFRβ, below 6.00; on CSF1R, below 6.00.
For `Cc1cc(F)c(C(=O)NC2CN(c3ncccn3)C2)cc1NC(=O)c1cnc(N)s1` [Example 125, 2-Amino-N-[4-fluoro-2-methyl-5-[(1-pyrimidin-2-ylazetidin-3-yl)carbamoyl]phenyl]-1,3-thiazole-5-carboxamide], the pIC50 against c-Kit was above 7.00; against PDGFRα it was below 6.00; at PDGFRβ, below 6.00; against CSF1R, below 6.00.
On to `Cc1cc(F)c(C(=O)N[C@H]2C[C@@H](C#N)C2)cc1NC(=O)c1cnc(N)s1` [Example 126, 2-Amino-N-[5-[(3-cyanocyclobutyl)carbamoyl]-4-fluoro-2-methylphenyl]-1,3-thiazole-5-carboxamide], for which the pIC50 against c-Kit was above 7.00; on PDGFRα it was 6.00 to 7.00; against PDGFRβ, below 6.00; against CSF1R, below 6.00.
For the compound `Cc1cc(F)c(C(=O)N[C@H]2C[C@@H](C(N)=O)C2)cc1NC(=O)c1cnc(N)s1` [Example 127, 2-Amino-N-[5-[(3-carbamoylcyclobutyl)carbamoyl]-4-fluoro-2-methylphenyl]-1,3-thiazole-5-carboxamide], the pIC50 was 6.00 to 7.00 at c-Kit, below 6.00 on PDGFRα, below 6.00 at PDGFRβ and below 6.00 against CSF1R.
Turning to `Cc1cc(F)c(C(=O)Nc2ccc(OC3CC3)cc2F)cc1NC(=O)c1cnc(N)s1` [Example 128], the pIC50 against c-Kit is above 7.00; at PDGFRα it was 6.00 to 7.00; against PDGFRβ it was above 7.00; against CSF1R it was 6.00 to 7.00.
For the compound `Cc1cc(F)c(C(=O)Nc2ccn(C(C)(C)C)n2)cc1NC(=O)c1cnc(N)s1` [Example 141, 2-Amino-N-[5-[(1-tert-butylpyrazol-3-yl)carbamoyl]-4-fluoro-2-methylphenyl]-1,3-thiazole-5-carboxamide], the pIC50 against c-Kit was above 7.00; at PDGFRα it was above 7.00; on PDGFRβ, above 7.00; against CSF1R it was 6.00 to 7.00.
For the compound `Cc1cc(F)c(C(=O)Nc2ccn(CCO)n2)cc1NC(=O)c1cnc(N)s1` [Example 144, 2-Amino-N-[4-fluoro-5-[[1-(2-hydroxyethyl)pyrazol-3-yl]carbamoyl]-2-methylphenyl]-1,3-thiazole-5-carboxamide], the negative-log IC50 (pIC50) against c-Kit was above 7.00; against PDGFRα it was below 6.00; against PDGFRβ it was below 6.00; against CSF1R, below 6.00.
For `Cc1cc(F)c(C(=O)Nc2nc3c(s2)COCC3)cc1NC(=O)c1cnc(N)s1` [Example 145, 2-Amino-N-[5-(6,7-dihydro-4H-pyrano[4,3-d][1,3]thiazol-2-ylcarbamoyl)-4-fluoro-2-methylphenyl]-1,3-thiazole-5-carboxamide], the pIC50 at c-Kit is above 7.00; at PDGFRα it was below 6.00; at PDGFRβ, 6.00 to 7.00; on CSF1R it was 6.00 to 7.00.
As for `Cc1cc(F)c(C(=O)Nc2ncc(C(C)C)s2)cc1NC(=O)c1cnc(N)s1` [Example 146, 2-Amino-N-[4-fluoro-2-methyl-5-[(5-propan-2-yl-1,3-thiazol-2-yl)carbamoyl]phenyl]-1,3-thiazole-5-carboxamide], the pIC50 against c-Kit, against PDGFRα, against PDGFRβ and at CSF1R was above 7.00 throughout.
Consider `Cc1cc(F)c(C(=O)Nc2ccn(CC3CC3)n2)cc1NC(=O)c1cnc(N)s1` [Example 151, 2-Amino-N-[5-[[1-(cyclopropylmethyl)pyrazol-3-yl]carbamoyl]-4-fluoro-2-methylphenyl]-1,3-thiazole-5-carboxamide], for which the pIC50 was above 7.00 on c-Kit, 6.00 to 7.00 against PDGFRα, above 7.00 against PDGFRβ and 6.00 to 7.00 on CSF1R.
Consider `Cc1cc(F)c(C(=O)Nc2ccn(CC(C)(C)O)n2)cc1NC(=O)c1cnc(N)s1` [Example 153, 2-Amino-N-[4-fluoro-5-[[1-(2-hydroxy-2-methylpropyl)pyrazol-3-yl]carbamoyl]-2-methylphenyl]-1,3-thiazole-5-carboxamide], for which the pIC50 at c-Kit was above 7.00; at PDGFRα, below 6.00; against PDGFRβ, below 6.00; against CSF1R, below 6.00.

Values taken from US20250145606A1 (Arcus Biosciences, Inc., priority 2023, published 2025).
